Assay results taken from the NIST ThermoML archive (doi:10.1021/je900260g).

Assay: mn = molality of the nth substance listed, in mol/kg
Conditions: 101 kPa, Liquid

NC(CO)(CO)CO [2-amino-2-(hydroxymethyl)-1,3-propanediol] + O
mass density [kg/m3]
Conditions	m1 = 1.667	m1 = 2.294	m1 = 2.945	m1 = 3.66	m1 = 4.271	m1 = 4.908	m1 = 5.586
298.15 K	1043.81	1053.88	1065.01	1077.08	1086.34	1098.03	1106.97
303.15 K	1042.04	1052.01	1063.04	1075.01	1084.19	1095.81	1104.68
310.15 K	1039.3	1049.14	1060.05	1071.88	1080.98	1092.51	1101.29
318.15 K	1035.79	1045.51	1056.29	1068.02	1077.02	1088.46	1097.18
323.15 K	1033.4	1043.01	1053.79	1065.43	1074.4	1085.8	1094.46
328.15 K	1030.82	1039.97	1051.16	1062.67	1071.63	1083.04	1091.67

O=S(=O)(O)CCCCNC(CO)(CO)CO [N-tris(Hydroxymethyl)methyl-4-aminobutanesulfonic acid] + O
mass density [kg/m3]
Conditions	m1 = 0.9378	m1 = 1.552	m1 = 2.487	m1 = 4.08	m1 = 4.796	m1 = 5.154	m1 = 5.549
298.15 K	1067.23	1100.73	1143.55	1200.45	1218.48	1228.57	1235.88
303.15 K	1065.48	1098.86	1141.42	1198.12	1216.1	1226.17	1233.46
310.15 K	1062.76	1095.93	1138.29	1194.76	1212.71	1222.74	1229.98
318.15 K	1059.29	1092.31	1134.48	1190.76	1208.68	1218.68	1225.89
323.15 K	1056.9	1089.87	1131.99	1188.17	1206.07	1216.06	1223.25
328.15 K	1054.08	1086.99	1129.4	1185.52	1203.41	1213.41	1220.58
